Literature values in article PMC7395068, “The evolution of strategies to minimise the risk of human drug-induced liver injury (DILI) in drug discovery and development” (Archives of Toxicology, 2020).
Read-outs that look alike come from different tables or passages of the source.

What was measured:
human hepatocytes = details: In vitro Assay; ref Xu 2008; cited from earlier work
[1] = system: HepG2 C3A spheroid, BSEP, Glu/Gal in HepG2 cells, bioactivation; details: cited from earlier work
[2] = cited from earlier work
PHH spheroids = details: In vitro Assay; ref Vorrink 2018; cited from earlier work
[3] = ref Chen 2016; cited from earlier work
[4] = system: THLE-Null and THLE-3A4 cells; details: In vitro Assay; ref Gustafsson 2014; cited from earlier work
HepG2 cells [5] = details: In vitro Assay; ref O'Brien 2006; cited from earlier work
HepG2 cells [6] = details: In vitro Assay; ref Persson 2013; cited from earlier work
[7] = system: HepG2 cells, primary human hepatocytes; details: In vitro Assay; ref Garside 2014; cited from earlier work
rBsep = details: In vitro Assay; ref Dawson 2012; cited from earlier work
[8] = system: THLE or HepG2 cells, isolated mitochondria, BSEP; details: In vitro Assay; ref Aleo 2019; cited from earlier work
PHH = details: In vitro Assay; ref Proctor 2017; cited from earlier work
hLiMTs = details: In vitro Assay; ref Proctor 2017; cited from earlier work
[9] = system: primary human hepatocytes, NIH3T3 fibroblasts, BSEP, CYP3A4; details: In vitro Assay; ref Schadt 2015; cited from earlier work
[10] = In vitro Assay, ref Williams 2019

Cc1ccc(Cl)c(Nc2ccccc2C(=O)O)c1Cl [meclofenamate]
Structural based (HCI) (human hepatocytes): +VE | Bayesian Machine Learning ([1]; ref Williams 2019): +VE | In vivo DILI ([2]; ref Williams 2019): -VE | In vivo DILI ([2]; ref Xu 2008): +VE

CN1C[C@H](CNC(=O)OCc2ccccc2)C[C@@H]2c3cccc4c3c(cn4C)C[C@H]21 [metergoline]
Bayesian Machine Learning ([1]; ref Williams 2019): -VE

COC(=O)C1=C(C)NC(C)=C(C(=O)OCCN(C)Cc2ccccc2)C1c1cccc([N+](=O)[O-])c1 (stereo not shown) [nicardipine]
Bayesian Machine Learning [1, 10]: -VE | hLiMTs ATP <20 x Cmax (PHH spheroids): -VE

CN1Cc2c(N)cccc2C(c2ccccc2)C1 (stereo not shown) [nomifensine]
DILI +VE (5-8), DILI -VE (-4) [3]: +VE | DILI severity category [3]: vMost-DILI-Concern | Structural based (HCI) (human hepatocytes): -VE | THLE-Null [4]: -VE | Structural based (HCI) (HepG2 cells [5]): -VE | Cluser analysis (HepG2 cells [6]): -VE | Structural based (HCI) (HepG2 cells [6]): -VE | In vivo DILI ([2]; ref Aleo 2019): +VE | In vivo DILI ([2]; ref Dawson 2012): +VE | In vivo DILI ([2]; ref Garside 2014): +VE | In vivo DILI ([2]; ref Gustafsson 2014): +VE | In vivo DILI ([2]; ref O'Brien 2006): -VE | In vivo DILI ([2]; ref Persson 2013): +VE | In vivo DILI ([2]; ref Vorrink 2018): +VE | In vivo DILI ([2]; ref Xu 2008): +VE | Cluster 1-6 +VE Assay [7]: -VE | Inhibition of rBsep cutoff<1& cmax u>.2 (rBsep): -VE | hLiMTs ATP <20 x Cmax (PHH spheroids): +VE (IC20 < 20 × Cmax.tot cut-off) | Partition Hybrid HRM Score [8]: +VE | Ro2 Hybrid HRM Score [8]: -VE

O=c1[nH]c2ccccc2n1C1CCN(CCCC(c2ccc(F)cc2)c2ccc(F)cc2)CC1 [pimozide]
DILI +VE (5-8), DILI -VE (-4) [3]: -VE | DILI severity category [3]: vNo-DILI-Concern | Bayesian Machine Learning ([1]; ref Williams 2019): +VE | Structural based (HCI) (HepG2 cells [5]): -VE | In vivo DILI ([2]; ref O'Brien 2006): -VE | In vivo DILI ([2]; ref Proctor 2017): +VE | In vivo DILI ([2]; ref Williams 2019): +VE | PHH ATP <100uM (PHH): -VE | hLiMTs ATP <100uM (hLiMTs): +VE (IC50 threshold of 100 µM)

CN(C)C(=O)Oc1ccc[n+](C)c1 [pyridostigmine]
Bayesian Machine Learning [1]: -VE

Cc1ncc(CO)c(CO)c1O [pyridoxine]
DILI +VE (5-8), DILI -VE (-4) [3]: -VE | DILI severity category [3]: vNo-DILI-Concern | Structural based (HCI) (human hepatocytes): -VE | THLE-Null [4]: -VE | THLE-Null/3A4 [4]: -VE | Structural based (HCI) (HepG2 cells [5]): +VE | Cluser analysis (HepG2 cells [6]): -VE | Structural based (HCI) (HepG2 cells [6]): -VE | In vivo DILI ([2]; ref Dawson 2012): -VE | In vivo DILI ([2]; ref Garside 2014): -VE | In vivo DILI ([2]; ref Gustafsson 2014): -VE | In vivo DILI ([2]; ref O'Brien 2006): -VE | In vivo DILI ([2]; ref Persson 2013): -VE | In vivo DILI ([2]; ref Vorrink 2018): -VE | In vivo DILI ([2]; ref Xu 2008): -VE | Cluster 1-6 +VE Assay [7]: -VE | Inhibition of rBsep cutoff<1& cmax u>.2 (rBsep): -VE | Inhibition of rBsep cutoff<3 (rBsep): -VE | hLiMTs ATP <20 x Cmax (PHH spheroids): -VE

Cc1c(C(=O)NN2CCCCC2)nn(-c2ccc(Cl)cc2Cl)c1-c1ccc(Cl)cc1 [rimonabant]
Bayesian Machine Learning ([1]; ref Williams 2019): +VE | THLE-Null [4]: +VE | THLE-Null/3A4 [4]: +VE | In vivo DILI ([2]; ref Gustafsson 2014): -VE | In vivo DILI ([2]; ref Williams 2019): -VE

Cc1cc2c(cc1CC(=O)c1sccc1S(=O)(=O)Nc1onc(C)c1Cl)OCO2 [sitaxentan]
DILI +VE (5-8), DILI -VE (-4) [3]: +VE | DILI severity category [3]: vMost-DILI-Concern | Bayesian Machine Learning [1, 10]: +VE | Cellular toxicity (3T3 cells) [9]: -VE | Combined Assay [9]: +VE | GSH adduct HML [9]: +VE | Hepatocyte cellular toxicity [9]: +VE | MitoTox 3T3 [9]: -VE | TDI CYP3A4 [9]: +VE | hBSEP inhibition [9]: +VE | In vivo DILI ([2]; ref Aleo 2019): +VE | In vivo DILI ([2]; ref Proctor 2017): +VE | In vivo DILI ([2]; ref Schadt 2015): +VE | In vivo DILI ([2]; ref Williams 2019): +VE | PHH ATP <100uM (PHH): -VE | hLiMTs ATP <100uM (hLiMTs): -VE | Partition Hybrid HRM Score [8]: +VE | Ro2 Hybrid HRM Score [8]: +VE

Cc1cc(CC(=O)O)n(C)c1C(=O)c1ccc(Cl)cc1 [zomepirac]
Structural based (HCI) (human hepatocytes): -VE | Bayesian Machine Learning [1, 10]: +VE | THLE-Null [4]: -VE | THLE-Null/3A4 [4]: -VE | Structural based (HCI) (HepG2 cells [5]): +VE | Cellular toxicity (3T3 cells) [9]: -VE | Combined Assay [9]: +VE | GSH adduct HML [9]: +VE | Hepatocyte cellular toxicity [9]: -VE | MitoTox 3T3 [9]: -VE | TDI CYP3A4 [9]: -VE | hBSEP inhibition [9]: -VE | In vivo DILI ([2]; […]): +VE | In vivo DILI ([2]; ref Gustafsson 2014): -VE | In vivo DILI ([2]; ref O'Brien 2006): -VE | In vivo DILI ([2]; ref Proctor 2017): -VE | In vivo DILI ([2]; ref Schadt 2015): +VE | In vivo DILI ([2]; ref Williams 2019): -VE | In vivo DILI ([2]; ref Xu 2008): -VE | PHH ATP <100uM (PHH): -VE | hLiMTs ATP <100uM (hLiMTs): -VE
